Data on one compound can be found in article PMC8720282 (ACS chemical biology, 2021).

The series relates to defibrinated rabbit red blood cells. In words: Hemolysis assay. Type of series: cell-based. Particulars: defibrinated rabbit RBCs, triplicate on three separate days.

Regarding `CC(C)(C)CC(C)(C)c1ccc(OCCO)cc1` [Triton X], the “hemolysis in THY media alone” value is on record as “significant degree of hemolysis”.
